Experimental data published in patent US4087540A, “Octahydro-N-[(trichloromethyl)thio]-naphthalenedicarboximides” (Sterling Drug Inc., priority 1977, dated 1978).

What was measured:
[1] = tested on: fungus; settings: cited from earlier work; for properties as fungicidal additives to paints: Fette, Seifen, Anstrichmittel 1966
[2] = tested on: blue discoloration; settings: E. Hoffman and A. Saracz; cited from earlier work
[3] = tested on: Staphylococcus aureus; test: minimum inhibitory concentration against Staphylococcus aureus; assay type: cell-based; settings: for Minimum Inhibitory Concentration (%): microorganism 1, Staphylococcus aureus
Excerpt: (§1) These properties appear to be associated with the octahydronaphthalene structure of the compounds. Thus when the anhydride VIII (Z=O) was converted to the corresponding N-[(trichloromethyl)thio]-imide (VIII, Z=N--S--CCl3) the surprising observation was made that the cyclized compound IC has about five times the fungicidal activity, and against staphylococcus aureus about 100 times the activity, of the uncyclized compound VIII (Z=N--S--CCl3) and that the latter compound had only one-fifth the solubility of compound IC. The solubility data and minimum inhibitory concentration against several microorganisms for these two compounds as well as the known fungicide Captan are presented in the following table.

[4] = tested on: Penicillium glaucum; test: minimum inhibitory concentration against Penicillium glaucum; assay type: cell-based; settings: microorganism 2, Penicillium glaucum
Excerpt: as §1

[5] = tested on: Aspergillus niger; test: minimum inhibitory concentration against Aspergillus niger; assay type: cell-based; settings: microorganism 3, Aspergillus niger
Excerpt: as §1

[6] = tested on: Sclerophoma pityophila; test: minimum inhibitory concentration against Sclerophoma pityophila; assay type: cell-based; settings: microorganism 4, Sclerophoma pityophila
Excerpt: as §1

[7] = tested on: Pullularia pullulans; test: minimum inhibitory concentration against Pullularia pullulans; assay type: cell-based; settings: microorganism 5, Pullularia pullulans
Excerpt: as §1

[8] = tested on: Saccharomyces cerevisiac; test: minimum inhibitory concentration against Saccharomyces cerevisiac; assay type: cell-based; settings: microorganism 6, Saccharomyces cerevisiac
Excerpt: as §1

[9] = tested on: Candida albicans; test: minimum inhibitory concentration against Candida albicans; assay type: cell-based; settings: microorganism 7, Candida albicans
Excerpt: as §1

[10] = tested on: fungus; test: fungicidal activity (general); settings: for fungicidal activity: in words
Excerpt: (§2) In order to find a fungicide with high solubility in petroleum hydrocarbons, numerous N-trichloromethylthio compounds have been synthesized and tested for activity and solubility. […] Rather, activity is associated with certain structural features.

[11] = assay type: physicochemical; settings: in words
Excerpt: as §2

[12] = solubility in mineral spirits; assay type: physicochemical; settings: VIII (Z=N--S--CCl3) vs IC
Excerpt: as §1

[13] = cited from earlier work
[14] = B. A. Richardson; cited from earlier work

O=C1c2ccccc2C(=O)N1SC(F)(Cl)Cl [V]
properties as fungicidal additives to paints [1]: useful properties

O=C1c2ccccc2C(=O)N1SC(Cl)(Cl)Cl [III]
sufficiency of 1% to prevent blue discoloration [2]: insufficient to prevent blue discoloration

CC1(C)CCCC2=C1CC1C(=O)N(SC(Cl)(Cl)Cl)C(=O)C1C2 (centres unmarked) [IC, 1,2,3,4,5,6,7,8-octahydro-5,5-dimethyl-N-[(trichloromethyl)thio]-2,3-naphthalenedicarboximide]
activity against staphylococcus aureus relative to uncyclized compound VIII (Z=N--S--CCl3) ([3]; IC vs VIII): about 100 times | Minimum Inhibitory Concentration (%) [3]: 0.01% | Minimum Inhibitory Concentration (%) [4]: 0.001% | Minimum Inhibitory Concentration (%) [5]: 0.01% | Minimum Inhibitory Concentration (%) [6]: 0.001% | Minimum Inhibitory Concentration (%) [7]: 0.001% | Minimum Inhibitory Concentration (%) [8]: 0.001% | Minimum Inhibitory Concentration (%) [9]: 0.001% | fungicidal activity relative to uncyclized compound VIII (Z=N--S--CCl3) ([10]; IC vs VIII): about five | fungicidal activity [10]: excellent fungicidal activity | solubility in petroleum hydrocarbons [11]: good solubility in petroleum hydrocarbons

CC(C)=CCCC1=CCC2C(=O)N(SC(Cl)(Cl)Cl)C(=O)C2C1 (centres unmarked) [VIII]
solubility relative to compound IC [12]: one-fifth | Minimum Inhibitory Concentration (%) [3]: 1% | Minimum Inhibitory Concentration (%) [4]: 0.005% | Minimum Inhibitory Concentration (%) [5]: 0.01% | Minimum Inhibitory Concentration (%) [6]: 0.005% | Minimum Inhibitory Concentration (%) [7]: 0.005% | Minimum Inhibitory Concentration (%) [8]: 0.005% | Minimum Inhibitory Concentration (%) [9]: 0.01%

CC1(C)C2CC3C(=CCC4C(=O)N(SC(Cl)(Cl)Cl)C(=O)C43)C1C2 (centres unmarked) [IB, 1,2,3,4,4a,5,6,7-octahydro-2,2-dimethyl-N-[(trichloromethyl)thio]-1,3-methanonaphthalene-5,6-dicarboximide]
fungicidal activity [10]: excellent fungicidal activity | solubility in petroleum hydrocarbons [11]: good solubility in petroleum hydrocarbons

CN(C)S(=O)(=O)N(SC(F)(Cl)Cl)c1ccccc1 [VI]
properties as fungicidal additives to paints [1]: useful properties

CC1=C2CCC(C)CC2C2C(=O)N(SC(Cl)(Cl)Cl)C(=O)C2C1 (centres unmarked) [IA, 1,2,3,5,6,7,8,8a-octahydro-4,7-dimethyl-N-[(trichloromethyl)-thio]-1,2-naphthalenedicarboximide]
fungicidal activity [10]: excellent fungicidal activity | solubility in petroleum hydrocarbons [11]: good solubility in petroleum hydrocarbons

O=C1C2CCCCC2C(=O)N1SC(Cl)(Cl)Cl (centres unmarked) [IV]
solubility in petroleum ether [13]: 0.3%

O=C1Cc2ccccc2C(=O)N1SC(Cl)(Cl)Cl
fungicidal activity [10]: inactive

CCCCCCCCCCCCCCCCC1CC(=O)N(SC(Cl)(Cl)Cl)C1=O (centres unmarked)
fungicidal activity [10]: inactive

O=C1C2CC=CCC2C(=O)N1SC(Cl)(Cl)Cl (centres unmarked) [Captan]
Minimum Inhibitory Concentration (%) [3]: 0.05% | Minimum Inhibitory Concentration (%) [4]: 0.01% | Minimum Inhibitory Concentration (%) [5]: 0.05% | Minimum Inhibitory Concentration (%) [7]: 0.005% | Minimum Inhibitory Concentration (%) [9]: 0.01% | fungicidal effectiveness in paints ([1]; owing to its low solubility in paints, B. A. Richardson): practically ineffective | solubility in paints [14]: low solubility

O=C1C2C3c4ccccc4C(c4ccccc43)C2C(=O)N1SC(Cl)(Cl)Cl (centres unmarked)
fungicidal activity [10]: inactive

CC12CCC(C(=O)N(SC(Cl)(Cl)Cl)C1=O)C2(C)C (centres unmarked)
fungicidal activity [10]: inactive
